Measured values: patent publication US8022206B2 (OSI Pharmaceuticals, LLC, priority 2008, dated 2011)

Assays:
[1] = biological target: RON (human) (Homo sapiens, UniProt Q04912); assay: RON (human) AlphaScreen kinase assay, Km of ATP; type: biochemical; details: AlphaScreen, Km of ATP; read-out: RON biochemical IC50
Experimental: (§1) Someone skilled in the art will appreciate that a variety of assay formats may be used to determine the activity of the compounds of this invention. For example, AlphaScreen (Amplified Luminescent Proximity Homogeneous Assay) technology was used with the kinases described below. Assay ATP concentrations for individual kinases are included in the text.
Desired compound is added in a final concentration of 1% DMSO with control being vehicle of DMSO alone. […] Enzyme is added to initiate the reaction and incubated for 30 min at RT. In subdued light, appropriate amount of PT66 donor and acceptor beads (diluted 1:260 from manufacturer's provision in a 25 mM Tris HCl (pH=7.5), 200 mM NaCl, 100 mM EDTA, 0.3% BSA buffer) are added to the wells. The plates, incubated for 1 h, are read on an AlphaQuest plate reader.

[2] = biological target: MET (human) (Homo sapiens, UniProt P08581); assay: MET (human) AlphaScreen kinase assay, Km of ATP; type: biochemical; details: AlphaScreen, Km of ATP; read-out: Met biochemical IC50
Experimental: as §1
Desired compound is added in a final concentration of 1% DMSO with control being vehicle of DMSO alone. MET is diluted to the optimized concentration (optimized on a lot-by-lot basis) in an enzyme diluent buffer (50 mM Tris pH=7.4, 1% glycerol, 0.03% Brij35, 0.24 mM EGTA, 1 mM DTT, and 0.003% BSA). Enzyme is added to initiate the reaction and incubated for 60 min at RT. In subdued light, appropriate amount of PT66 donor and acceptor beads (diluted 1:260 from manufacturer's provision in a 25 mM Tris HCl (pH=7.5), 400 mM NaCl, 100 mM EDTA, 0.3% BSA buffer) are added to the wells. The plates, incubated for 1 h, are read on an AlphaQuest plate reader

MET (human), sequence (P08581 25-1390): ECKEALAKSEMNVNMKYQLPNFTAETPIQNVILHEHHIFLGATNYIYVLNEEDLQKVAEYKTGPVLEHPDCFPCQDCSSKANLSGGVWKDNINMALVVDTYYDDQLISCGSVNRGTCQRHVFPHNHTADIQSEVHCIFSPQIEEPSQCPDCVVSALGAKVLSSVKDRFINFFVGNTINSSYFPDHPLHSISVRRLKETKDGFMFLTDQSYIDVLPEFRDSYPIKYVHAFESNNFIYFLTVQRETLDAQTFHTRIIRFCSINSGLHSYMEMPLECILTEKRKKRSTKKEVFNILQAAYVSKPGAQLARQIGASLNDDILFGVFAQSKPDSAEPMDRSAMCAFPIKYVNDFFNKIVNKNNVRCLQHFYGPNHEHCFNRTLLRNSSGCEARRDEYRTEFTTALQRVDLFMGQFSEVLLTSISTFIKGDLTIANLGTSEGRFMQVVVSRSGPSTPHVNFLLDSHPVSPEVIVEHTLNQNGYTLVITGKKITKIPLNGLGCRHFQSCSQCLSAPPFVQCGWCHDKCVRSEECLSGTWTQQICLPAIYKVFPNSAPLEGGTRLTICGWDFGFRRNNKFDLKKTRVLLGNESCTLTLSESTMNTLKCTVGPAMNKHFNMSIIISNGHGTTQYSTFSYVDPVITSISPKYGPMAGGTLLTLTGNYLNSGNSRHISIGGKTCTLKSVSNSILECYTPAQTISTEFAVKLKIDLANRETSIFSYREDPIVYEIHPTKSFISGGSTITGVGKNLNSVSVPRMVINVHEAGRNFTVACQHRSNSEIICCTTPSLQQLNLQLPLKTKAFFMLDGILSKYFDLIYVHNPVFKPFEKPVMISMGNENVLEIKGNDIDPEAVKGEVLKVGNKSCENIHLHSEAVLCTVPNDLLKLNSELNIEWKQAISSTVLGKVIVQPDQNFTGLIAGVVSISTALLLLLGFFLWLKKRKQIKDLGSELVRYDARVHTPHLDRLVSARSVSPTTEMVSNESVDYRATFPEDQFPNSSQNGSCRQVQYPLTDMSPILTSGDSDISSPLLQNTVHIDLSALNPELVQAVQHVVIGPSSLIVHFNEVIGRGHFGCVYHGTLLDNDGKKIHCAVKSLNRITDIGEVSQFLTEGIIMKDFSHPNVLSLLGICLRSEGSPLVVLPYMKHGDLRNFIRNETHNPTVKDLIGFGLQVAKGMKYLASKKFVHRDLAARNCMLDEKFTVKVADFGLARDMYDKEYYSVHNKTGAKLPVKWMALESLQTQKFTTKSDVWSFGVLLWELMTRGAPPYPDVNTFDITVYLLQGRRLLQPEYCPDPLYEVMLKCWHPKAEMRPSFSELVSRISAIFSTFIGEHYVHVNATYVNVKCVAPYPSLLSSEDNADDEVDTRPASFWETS
RON (human), sequence (Q04912 25-1400): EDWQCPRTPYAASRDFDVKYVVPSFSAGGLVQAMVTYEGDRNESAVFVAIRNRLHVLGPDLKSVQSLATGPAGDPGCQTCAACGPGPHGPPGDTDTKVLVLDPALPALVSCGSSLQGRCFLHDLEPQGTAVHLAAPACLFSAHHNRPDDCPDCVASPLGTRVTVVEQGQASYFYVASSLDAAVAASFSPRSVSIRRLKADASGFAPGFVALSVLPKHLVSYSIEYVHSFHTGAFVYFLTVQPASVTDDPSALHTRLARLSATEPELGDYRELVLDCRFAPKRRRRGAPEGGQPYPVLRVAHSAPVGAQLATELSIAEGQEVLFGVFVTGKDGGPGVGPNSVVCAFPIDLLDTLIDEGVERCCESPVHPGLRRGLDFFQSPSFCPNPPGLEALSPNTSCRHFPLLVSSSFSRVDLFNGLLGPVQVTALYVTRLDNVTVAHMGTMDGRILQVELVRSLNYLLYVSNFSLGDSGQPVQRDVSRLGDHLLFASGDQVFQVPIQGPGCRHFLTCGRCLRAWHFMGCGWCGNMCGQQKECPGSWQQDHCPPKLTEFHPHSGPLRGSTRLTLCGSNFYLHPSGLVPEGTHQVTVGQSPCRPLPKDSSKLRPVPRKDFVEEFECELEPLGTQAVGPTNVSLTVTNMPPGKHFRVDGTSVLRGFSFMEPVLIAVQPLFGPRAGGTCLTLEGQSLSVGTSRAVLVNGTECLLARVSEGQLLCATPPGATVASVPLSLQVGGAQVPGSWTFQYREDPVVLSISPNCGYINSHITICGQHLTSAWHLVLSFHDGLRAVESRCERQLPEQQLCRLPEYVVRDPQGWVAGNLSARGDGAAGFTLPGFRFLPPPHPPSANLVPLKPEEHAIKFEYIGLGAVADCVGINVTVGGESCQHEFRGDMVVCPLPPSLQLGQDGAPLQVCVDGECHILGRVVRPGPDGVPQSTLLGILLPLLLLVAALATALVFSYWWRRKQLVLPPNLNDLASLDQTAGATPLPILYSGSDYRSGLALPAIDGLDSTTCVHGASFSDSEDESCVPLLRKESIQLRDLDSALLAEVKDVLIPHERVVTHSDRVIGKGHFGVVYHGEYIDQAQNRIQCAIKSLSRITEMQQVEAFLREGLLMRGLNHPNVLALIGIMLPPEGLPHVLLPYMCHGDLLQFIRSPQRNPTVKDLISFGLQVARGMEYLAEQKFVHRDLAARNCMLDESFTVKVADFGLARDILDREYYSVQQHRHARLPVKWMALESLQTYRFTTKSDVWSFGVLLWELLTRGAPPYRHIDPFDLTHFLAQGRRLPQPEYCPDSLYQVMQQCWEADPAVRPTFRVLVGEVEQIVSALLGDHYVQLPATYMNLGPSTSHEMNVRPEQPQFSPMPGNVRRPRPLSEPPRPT

SMILES | IC50 [1] [nM] | IC50 [2] [nM]
C[C@@H](Oc1c(N)ncc2c(C3=CCN(CC(=O)N(C)C)CC3)coc12)c1c(Cl)ccc(F)c1Cl [Example 200, 2-(4-{6-Amino-7-[(R)-1-(2,6-dichloro-3-fluorophenyl)ethoxy]-furo[3,2-c]pyridin-3-yl}-3,6-dihydro-2H-pyridin-1-yl)-N,N-dimethylacetamide] | 500 to 5000 | < 500
CNC(=O)c1cccc(-c2coc3c(O[C@H](C)c4c(Cl)ccc(F)c4Cl)c(N)ncc23)c1 [Example 68, 3-{6-Amino-7-[(R)-1-(2,6-dichloro-3-fluorophenyl)ethoxy]-furo[3,2-c]pyridin-3-yl}-N-methylbenzamide] | 500 to 5000 | 500 to 5000
C[C@@H](Oc1c(N)ncc2c(-c3ccc([N+](=O)[O-])nc3)coc12)c1c(Cl)ccc(F)c1Cl [Example 119, 7-[(R)-1-(2,6-Dichloro-3-fluorophenyl)ethoxy]-3-(6-nitropyridin-3-yl)furo[3,2-c]pyridin-6-ylamine] | 5000 to 20000 | 500 to 5000
C[C@@H](Oc1c(N)ncc2c(-c3ccc(CN4CCC4)s3)coc12)c1c(Cl)ccc(F)c1Cl [Example 220, 3-(5-Azetidin-1-ylmethylthiophen-2-yl)-7-[(R)-1-(2,6-dichloro-3-fluorophenyl)ethoxy]furo[3,2-c]pyridin-6-ylamine] | < 500 | < 500
C[C@@H](Oc1c(N)ncc2c(C(=O)NC(C)(C)C)coc12)c1c(Cl)ccc(F)c1Cl [Example 184, 6-Amino-7-[(R)-1-(2,6-dichloro-3-fluorophenyl)ethoxy]furo[3,2-c]pyridine-3-carboxylic acid tert-butylamide] | 5000 to 20000 | 500 to 5000
CC(=O)Nc1cccc(-c2coc3c(O[C@H](C)c4c(Cl)ccc(F)c4Cl)c(N)ncc23)c1 [Example 78, N-(3-{6-Amino-7-[(R)-1-(2,6-dichloro-3-fluorophenyl)ethoxy]-furo[3,2-c]pyridin-3-yl}phenyl)acetamide] | 500 to 5000 | 500 to 5000
C[C@@H](Oc1c(N)ncc2c(-c3ccc(NCCN4CCOCC4)nc3)coc12)c1c(Cl)ccc(F)c1Cl [Example 104, 7-[(R)-1-(2,6-Dichloro-3-fluorophenyl)ethoxy]-3-[6-(2-morpholin-4-yl-ethylamino)pyridin-3-yl]furo[3,2-c]pyridin-6-ylamine] | 500 to 5000 | < 500
C[C@@H](Oc1c(N)ncc2c(C3=CCN(C(=O)NC(C)(C)C)CC3)coc12)c1c(Cl)ccc(F)c1Cl [Example 148, 4-{6-Amino-7-[(1R)-1-(2,6-dichloro-3-fluorophenyl)ethoxy]furo[3,2-c]pyridin-3-yl}-N-tert-butyl-3,6-dihydropyridine-1(2H)-carboxamide] | 500 to 5000 | < 500
CC(=O)Nc1ccc(-c2coc3c(O[C@H](C)c4c(Cl)ccc(F)c4Cl)c(N)ncc23)cc1 [Example 58, N-(4-{6-Amino-7-[(R)-1-(2,6-dichloro-3-fluorophenyl)ethoxy]-furo[3,2-c]pyridin-3-yl}phenyl)acetamide] | 500 to 5000 | 500 to 5000
C[C@@H](Oc1c(N)ncc2c(C3=CCN(C(=O)C(F)(F)F)CC3)coc12)c1c(Cl)ccc(F)c1Cl [Example 56, 1-(4-{6-Amino-7-[(R)-1-(2,6-dichloro-3-fluorophenyl)-ethoxy]-furo[3,2-c]pyridin-3-yl}-3,6-dihydro-2H-pyridin-1-yl)-2,2,2-trifluoroethanone] | 500 to 5000 | 500 to 5000
C[C@@H](Oc1c(N)ncc2c(C3=CCN(C(=O)CO)CC3)coc12)c1c(Cl)ccc(F)c1Cl [Example 142, 1-[4-{6-Amino-7-[(1R)-1-(2,6-dichloro-3-fluorophenyl)ethoxy]furo[3,2-c]pyridin-3-yl}-3,6-dihydropyridin-1(2H)-yl]-2-hydroxyethanone] | 500 to 5000 | < 500
C[C@@H](Oc1c(N)ncc2c(Br)coc12)c1c(Cl)ccc(F)c1Cl [Example 2, 3-Bromo-7-[(R)-1-(2,6-dichloro-3-fluorophenyl)-ethoxy]-furo[3,2-c]pyridin-6-ylamine] | 5000 to 20000 | 500 to 5000
C[C@@H](Oc1c(N)ncc2c(C3=CCN(CC#N)CC3)coc12)c1c(Cl)ccc(F)c1Cl [Example 321, (4-{6-Amino-7-[(R)-1-(2,6-dichloro-3-fluorophenyl)ethoxy]furo[3,2-c]pyridin-3-yl}-3,6-dihydro-2H-pyridin-1-yl)acetonitrile] | 500 to 5000 | < 500

Other lines, results leading:

IC50 [1] [nM] | IC50 [2] [nM] | SMILES
5000 to 20000 | 500 to 5000 | C[C@@H](Oc1c(N)ncc2c(-c3cccc(NS(=O)(=O)CCC(F)(F)F)c3)coc12)c1c(Cl)ccc(F)c1Cl [Example 248, 3,3,3-Trifluoropropane-1-sulfonic acid (3-{6-amino-7-[(R)-1-(2,6-dichloro-3-fluorophenyl)ethoxy]-furo[3,2-c]pyridin-3-yl}phenyl)amide]
500 to 5000 | 500 to 5000 | CC(Oc1c(N)ncc2c(-c3cnn(C4CCNCC4)c3)coc12)c1cccc(-c2cnn(C)c2)c1 (centres unmarked) [Example 448, 7-{1-[3-(1-Methyl-1H-pyrazol-4-yl)phenyl]ethoxy}-3-(1-piperidin-4-yl-1H-pyrazol-4-yl)furo[3,2-c]pyridin-6-ylamine]
500 to 5000 | 500 to 5000 | CC(Oc1c(N)ncc2c(-c3cnn(C4CCNCC4)c3)coc12)c1cccc(OC(F)(F)F)c1 (centres unmarked) [Example 352, 3-(1-Piperidin-4-yl-1H-pyrazol-4-yl)-7-[1-(3-trifluoromethoxy-phenyl)ethoxy]furo[3,2-c]pyridin-6-ylamine]
< 500 | < 500 | C[C@@H]1CN(C(=O)c2ccc(-c3coc4c(O[C@H](C)c5c(Cl)ccc(F)c5Cl)c(N)ncc34)cc2)C[C@H](C)N1 (relative stereo) [Example 294, (4-{6-Amino-7-[(R)-1-(2,6-dichloro-3-fluorophenyl)ethoxy]furo[3,2-c]pyridin-3-yl}phenyl)-((3S*,5R*)-3,5-dimethylpiperazin-1-yl)methanone]
500 to 5000 | 500 to 5000 | C[C@@H](Oc1c(N)ncc2c(-c3ccc(CN4CCOCC4)s3)coc12)c1c(Cl)ccc(F)c1Cl [Example 291]
500 to 5000 | 500 to 5000 | C[C@@H](Oc1c(N)ncc2c(-c3cnn(C4CCN(C(N)=O)CC4)c3)coc12)c1c(Cl)ccc(F)c1Cl [Example 272, 4-(4-{6-Amino-7-[(1R)-1-(2,6-dichloro-3-fluorophenyl)ethoxy]furo[3,2-c]pyridin-3-yl}-1H-pyrazol-1-yl)piperidine-1-carboxamide]
500 to 5000 | < 500 | CC(Cc1c(F)cccc1C(F)(F)F)Oc1c(N)ncc2c(-c3cnn(C4CCNCC4)c3)coc12 (centres unmarked) [Example 441, 7-[2-(2-Fluoro-6-trifluoromethylphenyl)-1-methylethoxy]-3-(1-piperidin-4-yl-1H-pyrazol-4-yl)furo[3,2-c]pyridin-6-ylamine]
500 to 5000 | 500 to 5000 | C[C@@H](Oc1c(N)ncc2c(-c3ccc(C(=O)NCCO)cc3)coc12)c1c(Cl)ccc(F)c1Cl [Example 287, 4-{6-Amino-7-[(R)-1-(2,6-dichloro-3-fluorophenyl)ethoxy]furo[3,2-c]pyridin-3-yl}-N-(2-hydroxyethyl)benzamide]
500 to 5000 | 500 to 5000 | COC(=O)c1ccc(C(C)Oc2c(N)ncc3c(-c4cnn(C5CCNCC5)c4)coc23)cc1 (centres unmarked) [Example 422, 4-{1-[6-Amino-3-(1-piperidin-4-yl-1H-pyrazol-4-yl)furo[3,2-c]pyridin-7-yloxy]ethyl}benzoic acid methyl ester]
